Patent publication US10526327B2, “Histone demethylase inhibitors” (CELGENE QUANTICEL RESEARCH, INC., priority 2013, dated 2020)

Molecular target: T1, Jarid1A (Homo sapiens, UniProt P29375)
T1 construct: purchased BPS Bioscience 50110
T1 sequence (P29375 1-1090): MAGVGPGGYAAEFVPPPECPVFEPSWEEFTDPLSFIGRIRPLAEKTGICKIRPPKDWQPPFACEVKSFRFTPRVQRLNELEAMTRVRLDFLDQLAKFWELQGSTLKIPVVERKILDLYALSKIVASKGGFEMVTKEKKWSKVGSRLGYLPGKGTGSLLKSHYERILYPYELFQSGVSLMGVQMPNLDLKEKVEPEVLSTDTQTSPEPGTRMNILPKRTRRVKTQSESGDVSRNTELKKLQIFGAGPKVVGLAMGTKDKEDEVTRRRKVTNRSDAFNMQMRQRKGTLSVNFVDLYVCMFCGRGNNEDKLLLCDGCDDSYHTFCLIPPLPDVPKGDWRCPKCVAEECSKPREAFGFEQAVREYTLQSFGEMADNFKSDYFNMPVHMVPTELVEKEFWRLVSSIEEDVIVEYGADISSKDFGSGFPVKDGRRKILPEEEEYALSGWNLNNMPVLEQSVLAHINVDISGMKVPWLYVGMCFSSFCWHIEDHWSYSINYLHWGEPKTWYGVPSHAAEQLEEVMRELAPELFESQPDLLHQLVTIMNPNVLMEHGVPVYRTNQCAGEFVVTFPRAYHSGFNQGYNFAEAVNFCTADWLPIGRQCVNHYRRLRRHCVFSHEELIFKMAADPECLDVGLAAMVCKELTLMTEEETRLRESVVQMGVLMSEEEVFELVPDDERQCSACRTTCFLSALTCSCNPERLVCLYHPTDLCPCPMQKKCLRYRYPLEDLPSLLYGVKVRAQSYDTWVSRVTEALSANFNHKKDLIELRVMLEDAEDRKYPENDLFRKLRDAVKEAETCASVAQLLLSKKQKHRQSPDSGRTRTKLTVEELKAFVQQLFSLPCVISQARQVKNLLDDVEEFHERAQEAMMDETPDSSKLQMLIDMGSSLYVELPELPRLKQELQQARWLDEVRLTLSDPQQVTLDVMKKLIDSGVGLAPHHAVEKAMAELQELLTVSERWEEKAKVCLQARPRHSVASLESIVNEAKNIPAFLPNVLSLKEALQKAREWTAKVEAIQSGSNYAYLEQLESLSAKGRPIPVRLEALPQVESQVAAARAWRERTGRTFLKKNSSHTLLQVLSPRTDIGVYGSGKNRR
Experiment: Jarid1A in vitro enzyme inhibition assay (TR-FRET)
Assay type: biochemical
Outline: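 Demethylation of 300 nM biotin-H3K4me3 peptide by 1 nM baculovirus-expressed Jarid1A (aa 1–1090) with 2 μM α-ketoglutarate, Fe(II) and ascorbate, pH 7.3, 30 min at room temperature. Stopped with EDTA; H3K4me1-2 product detected by TR-FRET (Eu anti-H3K4me1-2/streptavidin-APC). IC50 fitted from 665/615 ratio over 11-point dilutions.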

IC50 [nM]	Structure (SMILES)
≤ 100	O=S(=O)(C1CC1)N1CC[C@H](n2cc(Oc3nc(O)c4ccncc4n3)cn2)C1 [Example 137, 2-({1-[(3S)-1-(cyclopropanesulfonyl)pyrrolidin-3-yl]-1H-pyrazol-4-yl}oxy)pyrido[3,4-d]pyrimidin-4-ol]
≤ 100	O=S(=O)(c1ccccc1)N1CC[C@H](n2cc(Oc3nc(O)c4ccncc4n3)cn2)C1 [Example 138, 2-({1-[(3S)-1-(benzenesulfonyl)pyrrolidin-3-yl]-1H-pyrazol-4-yl}oxy)pyrido[3,4-d]pyrimidin-4-ol]
≤ 100	CC(=O)N1CC[C@H](n2cc(Oc3nc(O)c4ccncc4n3)cn2)C1 [Example 139, 1-[(3S)-3-[4-({4-hydroxypyrido[3,4-d]pyrimidin-2-yl}oxy)-1H-pyrazol-1-yl]pyrrolidin-1-yl]ethan-1-one]
≤ 100	N#CCC(=O)N1CC[C@H](n2cc(Oc3nc(O)c4ccncc4n3)cn2)C1 [Example 140, 3-[(3S)-3-[4-({4-hydroxypyrido[3,4-d]pyrimidin-2-yl}oxy)-1H-pyrazol-1-yl]pyrrolidin-1-yl]-3-oxopropanenitrile]
≤ 100	O=C(C1CC1)N1CC[C@H](n2cc(Oc3nc(O)c4ccncc4n3)cn2)C1 [Example 141, 2-({1-[(3S)-1-cyclopropanecarbonylpyrrolidin-3-yl]-1H-pyrazol-4-yl}oxy)pyrido[3,4-d]pyrimidin-4-ol]
≤ 100	O=C(c1ccccc1)N1CC[C@H](n2cc(Oc3nc(O)c4ccncc4n3)cn2)C1 [Example 142, 2-({1-[(3S)-1-benzoylpyrrolidin-3-yl]-1H-pyrazol-4-yl}oxy)pyrido[3,4-d]pyrimidin-4-ol]

The next lines start with the molecule.

Structure (SMILES)	IC50 [nM]
O=S(=O)(c1ccccc1)N1CC[C@@H](n2cc(Oc3nc(O)c4ccncc4n3)cn2)C1 [Example 128, 2-({1-[(3R)-1-(benzenesulfonyl)pyrrolidin-3-yl]-1H-pyrazol-4-yl}oxy)pyrido[3,4-d]pyrimidin-4-ol]	≤ 100
CC(=O)N1CC[C@@H](n2cc(Oc3nc(O)c4ccncc4n3)cn2)C1 [Example 129, 1-[(3R)-3-[4-({4-hydroxypyrido[3,4-d]pyrimidin-2-yl}oxy)-1H-pyrazol-1-yl]pyrrolidin-1-yl]ethan-1-one]	≤ 100
N#CCC(=O)N1CC[C@@H](n2cc(Oc3nc(O)c4ccncc4n3)cn2)C1 [Example 130, 3-[(3R)-3-[4-({4-hydroxypyrido[3,4-d]pyrimidin-2-yl}oxy)-1H-pyrazol-1-yl]pyrrolidin-1-yl]-3-oxopropanenitrile]	≤ 100
O=C(C1CC1)N1CC[C@@H](n2cc(Oc3nc(O)c4ccncc4n3)cn2)C1 [Example 131, 2-({1-[(3R)-1-cyclopropanecarbonylpyrrolidin-3-yl]-1H-pyrazol-4-yl}oxy)pyrido[3,4-d]pyrimidin-4-ol]	≤ 100
O=C(c1ccccc1)N1CC[C@@H](n2cc(Oc3nc(O)c4ccncc4n3)cn2)C1 [Example 132, 2-({1-[(3R)-1-benzoylpyrrolidin-3-yl]-1H-pyrazol-4-yl}oxy)pyrido[3,4-d]pyrimidin-4-ol]	≤ 100
Oc1nc(Oc2cnn([C@@H]3CCN(Cc4ccccc4)C3)c2)nc2cnccc12 [Example 133, 2-({1-[(3R)-1-benzylpyrrolidin-3-yl]-1H-pyrazol-4-yl}oxy)pyrido[3,4-d]pyrimidin-4-ol]	≤ 100
Oc1nc(Oc2cnn([C@@H]3CCN(c4ccc(F)cc4)C3)c2)nc2cnccc12 [Example 134, 2-({1-[(3R)-1-(4-fluorophenyl)pyrrolidin-3-yl]-1H-pyrazol-4-yl}oxy)pyrido[3,4-d]pyrimidin-4-ol]	≤ 100
Oc1nc(Oc2cnn([C@H]3CCNC3)c2)nc2cnccc12 [Example 135, 2-({1-[(3S)-pyrrolidin-3-yl]-1H-pyrazol-4-yl}oxy)pyrido[3,4-d]pyrimidin-4-ol]	100 to 1000
CCS(=O)(=O)N1CC[C@H](n2cc(Oc3nc(O)c4ccncc4n3)cn2)C1 [Example 136, 2-({1-[(3S)-1-(ethanesulfonyl)pyrrolidin-3-yl]-1H-pyrazol-4-yl}oxy)pyrido[3,4-d]pyrimidin-4-ol]	≤ 100
